Reference: ChEMBL document CHEMBL1201862, “PubChem BioAssay data set” (2004)
Active and inactive are the calls of the source.

Legend:
Kallikrein-7 = Kallikrein-7 (Homo sapiens, UniProt P49862); assay: Fluorescence Intensity-based biochemical primary high throughput dose response assay to identify activators of kallikrein-7 (K7) zymogen.
cells = assay type: functional
[1] = target: Mitogen-activated protein kinase 10 (Homo sapiens, UniProt P53779); assay: Dose response biochemical screening assay for inhibitors of c-Jun N-Terminal Kinase 3 (JNK3). [Related pubchem assays: 746 ]
Mitogen-activated protein kinase 10, sequence (P53779 whole entry): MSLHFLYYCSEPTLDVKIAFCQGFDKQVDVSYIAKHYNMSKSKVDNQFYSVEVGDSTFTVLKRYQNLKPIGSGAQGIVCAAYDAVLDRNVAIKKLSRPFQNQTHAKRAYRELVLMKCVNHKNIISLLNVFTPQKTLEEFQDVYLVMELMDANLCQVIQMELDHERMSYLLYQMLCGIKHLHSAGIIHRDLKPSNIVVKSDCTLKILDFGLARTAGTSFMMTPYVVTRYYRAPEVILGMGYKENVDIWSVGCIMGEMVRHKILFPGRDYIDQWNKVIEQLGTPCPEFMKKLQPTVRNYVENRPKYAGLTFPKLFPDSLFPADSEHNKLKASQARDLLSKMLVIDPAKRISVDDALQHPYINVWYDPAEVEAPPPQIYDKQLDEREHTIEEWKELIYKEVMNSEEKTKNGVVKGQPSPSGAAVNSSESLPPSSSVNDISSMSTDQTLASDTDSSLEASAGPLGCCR

[2] = target: 1-phosphatidylinositol 4,5-bisphosphate phosphodiesterase beta-3 (Homo sapiens, UniProt Q01970); assay: Fluorescence-based biochemical high throughput dose response assay to identify inhibitors of phospholipase C isozymes (PLC-B3).
1-phosphatidylinositol 4,5-bisphosphate phosphodiesterase beta-3, sequence (Q01970 whole entry, the tested form may be a part): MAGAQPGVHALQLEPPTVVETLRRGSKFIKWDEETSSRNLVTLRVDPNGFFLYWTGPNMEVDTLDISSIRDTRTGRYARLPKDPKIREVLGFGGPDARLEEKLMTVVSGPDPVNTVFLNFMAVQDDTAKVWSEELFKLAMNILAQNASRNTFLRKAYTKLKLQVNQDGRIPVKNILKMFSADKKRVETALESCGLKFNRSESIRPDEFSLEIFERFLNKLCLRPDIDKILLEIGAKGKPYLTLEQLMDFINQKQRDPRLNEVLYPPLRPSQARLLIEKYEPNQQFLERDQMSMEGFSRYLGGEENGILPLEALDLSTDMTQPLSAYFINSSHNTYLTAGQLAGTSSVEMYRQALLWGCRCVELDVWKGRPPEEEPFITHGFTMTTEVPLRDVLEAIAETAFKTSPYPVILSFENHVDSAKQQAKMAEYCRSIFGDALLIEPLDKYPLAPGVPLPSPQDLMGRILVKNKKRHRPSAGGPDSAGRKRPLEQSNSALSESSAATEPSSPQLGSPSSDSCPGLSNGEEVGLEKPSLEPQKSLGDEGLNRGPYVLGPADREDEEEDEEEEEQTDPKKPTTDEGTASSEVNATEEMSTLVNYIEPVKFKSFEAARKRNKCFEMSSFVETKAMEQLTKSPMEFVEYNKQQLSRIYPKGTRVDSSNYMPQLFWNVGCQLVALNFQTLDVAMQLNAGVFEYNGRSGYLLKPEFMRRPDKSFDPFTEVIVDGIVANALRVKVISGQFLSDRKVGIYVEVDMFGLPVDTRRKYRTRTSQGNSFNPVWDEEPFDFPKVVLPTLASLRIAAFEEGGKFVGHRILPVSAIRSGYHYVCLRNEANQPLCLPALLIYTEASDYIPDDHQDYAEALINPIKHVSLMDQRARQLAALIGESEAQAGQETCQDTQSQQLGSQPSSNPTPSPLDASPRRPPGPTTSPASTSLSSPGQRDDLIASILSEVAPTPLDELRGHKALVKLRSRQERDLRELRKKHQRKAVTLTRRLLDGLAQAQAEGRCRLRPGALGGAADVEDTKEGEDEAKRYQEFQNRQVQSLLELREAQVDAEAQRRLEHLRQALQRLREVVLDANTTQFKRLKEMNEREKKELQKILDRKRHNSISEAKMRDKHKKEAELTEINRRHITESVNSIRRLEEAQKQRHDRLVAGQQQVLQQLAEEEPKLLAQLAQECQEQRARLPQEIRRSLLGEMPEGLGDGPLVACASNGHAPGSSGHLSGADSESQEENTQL

[3] = target: T1, RNA-binding protein pos-1 (Caenorhabditis elegans, UniProt G5EF15); assay: disruptors of C. elegans POS-1 RNA interaction – biochemical, fluorescence polarization, dose response (AID 1964);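 note: purified POS-1 fused to maltose binding protein made in E. coli; potency of compounds blocking POS-1 binding to fluorescent RNA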
T1 sequence (G5EF15 whole entry): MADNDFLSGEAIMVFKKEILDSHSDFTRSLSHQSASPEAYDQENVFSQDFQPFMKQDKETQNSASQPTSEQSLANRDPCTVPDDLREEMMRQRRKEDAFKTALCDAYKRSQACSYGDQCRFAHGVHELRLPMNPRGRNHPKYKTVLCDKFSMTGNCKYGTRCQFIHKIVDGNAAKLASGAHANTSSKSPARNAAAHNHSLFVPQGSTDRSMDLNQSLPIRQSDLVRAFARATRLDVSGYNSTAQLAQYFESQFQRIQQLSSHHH

[4] = target: T2, Zinc finger protein mex-5 (Caenorhabditis elegans, UniProt Q9XUB2); assay: potency of MEX-5 RNA-binding blockers – biochemical, C. elegans, fluorescence polarization, dose response (AID 1960)
T2 sequence (Q9XUB2 whole entry): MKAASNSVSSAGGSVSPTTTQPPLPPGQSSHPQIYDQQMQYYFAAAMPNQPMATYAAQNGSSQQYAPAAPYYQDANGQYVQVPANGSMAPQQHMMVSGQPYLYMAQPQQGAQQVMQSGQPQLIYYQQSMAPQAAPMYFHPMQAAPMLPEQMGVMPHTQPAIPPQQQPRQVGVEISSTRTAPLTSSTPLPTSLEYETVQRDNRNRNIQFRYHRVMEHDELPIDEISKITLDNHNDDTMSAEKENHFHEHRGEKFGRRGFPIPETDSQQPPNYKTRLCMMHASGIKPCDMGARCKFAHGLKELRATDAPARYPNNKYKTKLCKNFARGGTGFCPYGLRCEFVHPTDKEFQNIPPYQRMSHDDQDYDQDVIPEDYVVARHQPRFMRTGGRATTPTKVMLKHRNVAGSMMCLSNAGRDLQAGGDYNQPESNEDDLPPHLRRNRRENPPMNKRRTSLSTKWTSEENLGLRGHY

[5] = target: 1-phosphatidylinositol 4,5-bisphosphate phosphodiesterase gamma-1 (Homo sapiens, UniProt P19174); assay: Counterscreen for inhibitors of phospholipase C isozymes (PLC-B3): Fluorescence-based biochemical high throughput dose response assay to identify inhibitors of phospholipase C isozymes (PLC-gamma1).
1-phosphatidylinositol 4,5-bisphosphate phosphodiesterase gamma-1, sequence (P19174 whole entry, the tested form may be a part): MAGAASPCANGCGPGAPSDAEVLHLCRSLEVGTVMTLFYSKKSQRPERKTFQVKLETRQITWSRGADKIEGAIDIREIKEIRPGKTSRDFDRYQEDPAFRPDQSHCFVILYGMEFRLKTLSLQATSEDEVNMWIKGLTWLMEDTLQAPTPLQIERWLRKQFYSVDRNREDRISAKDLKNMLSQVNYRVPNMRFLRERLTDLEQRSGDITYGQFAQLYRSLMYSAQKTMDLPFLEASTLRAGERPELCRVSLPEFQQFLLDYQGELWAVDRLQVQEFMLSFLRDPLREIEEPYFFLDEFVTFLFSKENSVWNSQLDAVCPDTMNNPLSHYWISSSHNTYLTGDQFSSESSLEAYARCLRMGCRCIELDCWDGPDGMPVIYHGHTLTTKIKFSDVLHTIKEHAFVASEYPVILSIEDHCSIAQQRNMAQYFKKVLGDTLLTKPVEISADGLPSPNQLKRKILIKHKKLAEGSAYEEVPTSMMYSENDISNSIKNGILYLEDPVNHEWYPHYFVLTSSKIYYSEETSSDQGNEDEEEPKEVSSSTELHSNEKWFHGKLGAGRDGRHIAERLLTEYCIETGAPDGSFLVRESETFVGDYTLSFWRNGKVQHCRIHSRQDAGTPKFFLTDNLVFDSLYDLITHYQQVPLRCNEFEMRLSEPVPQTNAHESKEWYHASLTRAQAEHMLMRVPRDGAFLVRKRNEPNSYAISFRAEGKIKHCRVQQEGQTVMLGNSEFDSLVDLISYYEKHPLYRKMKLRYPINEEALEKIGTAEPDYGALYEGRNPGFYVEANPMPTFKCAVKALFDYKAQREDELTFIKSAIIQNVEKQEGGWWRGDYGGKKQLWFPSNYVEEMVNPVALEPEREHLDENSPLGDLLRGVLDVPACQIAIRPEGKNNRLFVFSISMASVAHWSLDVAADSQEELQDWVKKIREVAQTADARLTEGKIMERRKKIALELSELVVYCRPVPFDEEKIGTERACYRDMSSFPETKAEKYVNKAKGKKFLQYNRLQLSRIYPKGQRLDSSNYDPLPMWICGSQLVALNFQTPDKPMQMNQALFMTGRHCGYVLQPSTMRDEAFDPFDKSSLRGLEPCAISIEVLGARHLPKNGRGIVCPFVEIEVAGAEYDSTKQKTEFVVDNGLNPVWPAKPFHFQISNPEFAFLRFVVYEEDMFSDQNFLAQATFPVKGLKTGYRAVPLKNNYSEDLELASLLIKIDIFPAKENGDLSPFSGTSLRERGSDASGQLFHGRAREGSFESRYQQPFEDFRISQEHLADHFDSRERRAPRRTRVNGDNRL

[6] = target: T3, Carboxy-terminal domain RNA polymerase II polypeptide A small phosphatase 1 (Homo sapiens, UniProt Q9GZU7); assay: CTDSP1 inhibitors, concentration-response, biochemical, absorbance readout, ultra-high-throughput screen actives (AID 540297); assay type: functional
T3 sequence (Q9GZU7 whole entry): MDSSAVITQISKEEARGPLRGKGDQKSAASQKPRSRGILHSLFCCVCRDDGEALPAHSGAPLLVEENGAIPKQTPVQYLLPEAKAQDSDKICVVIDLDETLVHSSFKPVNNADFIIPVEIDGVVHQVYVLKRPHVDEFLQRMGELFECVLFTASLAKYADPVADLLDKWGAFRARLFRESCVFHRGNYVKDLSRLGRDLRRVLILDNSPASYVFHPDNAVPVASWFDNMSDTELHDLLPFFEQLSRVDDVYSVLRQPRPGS

[7] = target: Glucose-6-phosphate 1-dehydrogenase (Homo sapiens, UniProt P11413); assay: inhibition of Homo sapiens G6PD, dose series – biochemical, fluorescence, selectivity assay for P. falciparum G6PD inhibitor project, dose response (AID 504792); assay type: functional
Glucose-6-phosphate 1-dehydrogenase, sequence (P11413 whole entry): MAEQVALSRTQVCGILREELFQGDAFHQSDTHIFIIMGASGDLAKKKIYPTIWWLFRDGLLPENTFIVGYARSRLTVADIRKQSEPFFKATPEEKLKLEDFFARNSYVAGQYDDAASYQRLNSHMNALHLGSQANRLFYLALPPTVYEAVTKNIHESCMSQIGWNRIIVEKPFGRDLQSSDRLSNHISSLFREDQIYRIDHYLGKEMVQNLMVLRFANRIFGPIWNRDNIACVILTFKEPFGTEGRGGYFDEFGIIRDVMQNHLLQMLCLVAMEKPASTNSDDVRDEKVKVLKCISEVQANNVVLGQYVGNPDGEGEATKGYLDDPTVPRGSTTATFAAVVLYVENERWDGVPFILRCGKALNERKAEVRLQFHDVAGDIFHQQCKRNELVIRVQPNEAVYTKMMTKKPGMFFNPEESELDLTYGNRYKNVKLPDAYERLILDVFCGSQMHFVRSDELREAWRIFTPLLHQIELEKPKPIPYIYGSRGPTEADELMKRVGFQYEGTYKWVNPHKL

Paired box protein Pax-8 = Paired box protein Pax-8 (Homo sapiens, UniProt Q06710); assay: PAX8 transcriptional activity inhibition in RMG-I – RMG-I cells, luciferase, cherry-pick, dose response (AID 687027); assay type: functional, cell-based;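 note: luciferase reporter driven by Pax8 target thyroperoxidase promoter measured by SteadyGlo luminescence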
Paired box protein Pax-8, sequence (Q06710 whole entry): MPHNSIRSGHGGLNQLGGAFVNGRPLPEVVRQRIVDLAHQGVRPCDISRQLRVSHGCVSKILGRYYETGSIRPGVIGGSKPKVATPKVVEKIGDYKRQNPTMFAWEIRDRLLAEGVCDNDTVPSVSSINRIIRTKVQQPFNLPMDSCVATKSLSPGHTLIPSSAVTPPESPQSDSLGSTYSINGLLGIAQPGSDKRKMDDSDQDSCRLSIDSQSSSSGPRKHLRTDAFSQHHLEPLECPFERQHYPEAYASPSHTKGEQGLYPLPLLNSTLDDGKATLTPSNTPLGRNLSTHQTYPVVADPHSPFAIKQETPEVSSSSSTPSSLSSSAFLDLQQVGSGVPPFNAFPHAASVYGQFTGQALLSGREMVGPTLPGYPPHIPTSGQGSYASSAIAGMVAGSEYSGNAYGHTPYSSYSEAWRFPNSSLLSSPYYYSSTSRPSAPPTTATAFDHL

[8] = target: T4, Microphthalmia-associated transcription factor (Homo sapiens, UniProt O75030); assay: reducers of TRPM1 reporter luminescence, concentration series – cell-based, SK-MEL-5, cherry-picked, set 3, MITF inhibitor project, dose response (AID 493073); assay type: functional;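 note: SK-MEL-5 melanoma cells with luciferase driven by the MITF target TRPM1 promoter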
T4 sequence (O75030 whole entry): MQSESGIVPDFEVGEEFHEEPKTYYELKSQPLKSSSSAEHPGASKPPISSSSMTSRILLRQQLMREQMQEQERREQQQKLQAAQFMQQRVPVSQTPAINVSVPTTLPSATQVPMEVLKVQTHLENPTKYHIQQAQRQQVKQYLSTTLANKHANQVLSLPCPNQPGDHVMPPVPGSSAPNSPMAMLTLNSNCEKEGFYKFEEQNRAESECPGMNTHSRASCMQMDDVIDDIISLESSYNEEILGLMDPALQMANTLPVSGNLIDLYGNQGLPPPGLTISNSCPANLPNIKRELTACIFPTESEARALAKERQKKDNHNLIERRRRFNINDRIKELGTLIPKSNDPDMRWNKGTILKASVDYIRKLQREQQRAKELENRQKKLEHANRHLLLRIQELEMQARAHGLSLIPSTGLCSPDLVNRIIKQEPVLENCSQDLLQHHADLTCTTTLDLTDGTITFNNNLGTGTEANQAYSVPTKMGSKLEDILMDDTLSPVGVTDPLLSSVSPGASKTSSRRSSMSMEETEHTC

[9] = Shn3 3'UTR reporter signal decrease – cell-based, Clone20 osteoblasts, firefly luciferase, cherry-pick, set 2, Schnurri-3 inhibitor project, dose response (AID 720490); assay type: functional;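 note: actives lower the luminescence signal as inhibitors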
[10] = reduction of Shn3 3'UTR-driven luciferase in osteoblasts – cell-based, Clone20 osteoblasts, firefly luciferase, cherry-picked, dose response (AID 624132); assay type: functional;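 note: firefly luciferase luminescence from reporter carrying the Shn3 3'UTR in osteoblasts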
[11] = target: Glutathione-S-transferase (Schistosoma japonicum, UniProt Q26513); assay: GST-antibody interaction or FRET quenching – biochemical, TR-FRET, artefact control for Vif-APOBEC3G degradation inhibitor project, dose response (AID 1117362); assay type: functional
Glutathione-S-transferase, sequence (Q26513 whole entry): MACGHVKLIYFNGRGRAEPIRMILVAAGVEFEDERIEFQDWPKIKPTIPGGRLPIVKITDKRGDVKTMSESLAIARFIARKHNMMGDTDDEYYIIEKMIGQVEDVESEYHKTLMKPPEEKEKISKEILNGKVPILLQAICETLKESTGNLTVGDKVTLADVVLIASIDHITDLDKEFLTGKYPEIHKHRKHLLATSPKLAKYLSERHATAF

[12] = target: Ras and Rab interactor 1/Tyrosine-protein kinase ABL1 (Homo sapiens, UniProt P00519+Q13671); assay type: functional;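 note: biochemical TR-FRET dose-response test measuring inhibition of binding between Rin1 and Abl proteins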
Nonstructural protein 1 = Nonstructural protein 1 (Influenza A virus, UniProt Q194T2); assay type: functional, Influenza A virus (A/California/07/2009(H1N1))
Nonstructural protein 1, sequence (Q194T2 whole entry): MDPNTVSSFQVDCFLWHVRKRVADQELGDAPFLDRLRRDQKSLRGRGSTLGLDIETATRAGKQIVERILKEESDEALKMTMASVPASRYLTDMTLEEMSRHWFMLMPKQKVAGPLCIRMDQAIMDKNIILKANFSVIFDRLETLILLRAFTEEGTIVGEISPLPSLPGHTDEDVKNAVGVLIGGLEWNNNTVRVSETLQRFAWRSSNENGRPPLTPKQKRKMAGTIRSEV

H9c2 = assay: cells; assay type: functional, cell-based; conditions: Rattus norvegicus, H9c2, Myocardium;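 note: confirmatory concentration-response retest of ultra-high-throughput screening hits for modulation of myocardial damage; cell death induced by hydrogen peroxide oxidative stress; compound pretreatment for 60 min then peroxide exposure for 2 h; potency is for protecting the cells against peroxide damage rather than for killing them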
[13] = target: T5, Mannose-6-phosphate isomerase (Homo sapiens, UniProt P34949); assay: MPI inhibition at elevated mannose 6-phosphate – biochemical, fluorescence intensity, high mannose 6-phosphate, primary screen (AID 1220)
T5 sequence (P34949 whole entry): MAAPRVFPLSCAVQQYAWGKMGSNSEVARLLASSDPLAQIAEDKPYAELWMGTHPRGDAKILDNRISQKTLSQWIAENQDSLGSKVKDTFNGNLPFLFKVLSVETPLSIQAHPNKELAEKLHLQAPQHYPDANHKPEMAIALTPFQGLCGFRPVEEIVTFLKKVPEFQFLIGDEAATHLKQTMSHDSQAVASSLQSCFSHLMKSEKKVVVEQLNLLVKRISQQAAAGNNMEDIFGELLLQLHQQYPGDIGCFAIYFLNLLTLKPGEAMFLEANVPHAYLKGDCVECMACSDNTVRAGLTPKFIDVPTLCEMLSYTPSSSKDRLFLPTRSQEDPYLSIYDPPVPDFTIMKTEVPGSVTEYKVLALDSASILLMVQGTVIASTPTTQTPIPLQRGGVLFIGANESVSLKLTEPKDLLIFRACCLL

[14] = loss of viability in HepG2 cells – cell-based, CellTiter-Glo, cherry-picked, cytotoxicity control for Shn3 inhibitor project, dose response (AID 624134); assay type: functional
[15] = off-target signal loss in HeLa-CEM21 co-culture – HeLa F-luc CTL cells, cherry-picked, counter-screen for HIV-1 Env fusion inhibitor project, dose response (AID 652040); assay type: functional, cell-based;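 note: potency for signal decrease marking cytotoxic or nonspecific inhibition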
[16] = blockers of HIV-1 envelope-mediated cell-cell fusion – cherry-pick, dose response (AID 652057); assay type: functional, cell-based
[17] = HIV-1 AD8 envelope cell-cell fusion blockers – cherry-pick, dose response (AID 652062); assay type: functional, cell-based;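 note: luciferase signal from cell-cell fusion driven by HIV-1 clade B AD8 Env; potency is for inhibitors of fusion seen as a drop in luminescence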
[18] = non-specific 3'UTR reporter inhibition in Clone20-Shn3RL – cell-based, Renilla luciferase, cherry-picked, counter-screen for Shn3 inhibitor project, dose response (AID 624133); assay type: functional
[19] = blockers of HIV-1 ZM109 envelope-driven cell-cell fusion – HeLa effector, CEM target cells, luciferase, cherry-pick, dose response (AID 652058); assay type: functional, cell-based;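 note: luciferase signal from HIV-1 Env mediated cell-cell fusion of effector and target cells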
[20] = cytotoxicity toward Colo320 cells – cell-based, CellTiter-Glo luminescence, IC50, dose response (AID 1117334); assay type: functional; conditions: COLO 320
[21] = rise of 4N DNA cells, HeLa – IC50, dose response (AID 1117351); assay type: functional, cell-based
[22] = RKO cell viability reduction, dose response, CellTiter-Glo luminescence (AID 1117322); assay type: functional
[23] = cytotoxicity toward HCT116 cells – cell-based, CellTiter-Glo luminescence, IC50, dose response (AID 1117332); assay type: functional; conditions: HCT-116
[24] = HCT116 cell viability decrease, GSK3B pretreatment – CellTiter-Glo, IC50, dose response (AID 1117339); assay type: functional; conditions: HCT-116
[25] = rise of 2N DNA cells, HeLa – IC50, dose response (AID 1117349); assay type: functional, cell-based
[26] = CellTiter-Glo luminescence survival assay, SW480 colon tumor line, concentration-response curve, half-maximal inhibitory concentration (AID 1117338); assay type: functional
[27] = Reduced DLD-1 viability, concentration-response, CellTiter-Glo luminescence (AID 1117352); assay type: functional
[28] = cytotoxicity toward HT-29 cells – cell-based, CellTiter-Glo luminescence, IC50, dose response (AID 1117330); assay type: functional
[29] = SNU-C1 cell viability reduction, dose response, CellTiter-Glo luminescence (AID 1117323); assay type: functional, cell-based

Kallikrein-7, sequence (P49862 whole entry): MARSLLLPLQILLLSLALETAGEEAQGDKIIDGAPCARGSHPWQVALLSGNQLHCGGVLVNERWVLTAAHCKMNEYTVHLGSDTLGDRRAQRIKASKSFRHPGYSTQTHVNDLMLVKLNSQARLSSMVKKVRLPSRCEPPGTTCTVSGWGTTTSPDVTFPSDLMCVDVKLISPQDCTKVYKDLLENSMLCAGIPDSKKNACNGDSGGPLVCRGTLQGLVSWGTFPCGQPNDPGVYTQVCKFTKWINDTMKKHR

CCOC(=O)COc1ccc2c(c1)C(=O)CC1(CCCCC1)O2
EC50 (Kallikrein-7): > 69.5 µM (inactive) | IC50 (cells): 1.18 µM (active)

CCOc1cccc(NC(=O)C2CCCN(S(=O)(=O)c3ccc(-n4cnnn4)cc3)C2)c1 (centres undefined)
IC50 [1]: > 93.1 µM (not active)

O=C(O)c1ccc(-n2c(-c3cc(-c4ccco4)[nH]n3)n[nH]c2=S)cc1
IC50 [2]: > 122 µM (inactive) | EC50 [3]: 4.19 µM (inconclusive) | EC50 [4]: 4.74 µM (inconclusive) | IC50 [5]: 102 µM (inactive) | IC50 [6]: 1.59 µM (active) | IC50 [7]: > 80 µM (inactive)

Cc1ccc(-c2cn3cc(C)ccc3n2)cc1
AC50 (Paired box protein Pax-8): 3.46 µM (active) | AC50 [8]: 2.03 µM (active) | AC50 [9]: 7.73 µM (active) | AC50 [10]: 1.32 µM (active)

CC[n+]1ccc(C)c2cc([S+]([O-])C(F)(F)F)ccc21 (centres undefined)
IC50 [11]: 55.4 µM (active)

Cc1c(F)cccc1NC(=O)CCCCCC1NC(=O)NC1C (centres undefined)
IC50 [11]: 29.8 µM (active) | IC50 [12]: 0.0143 µM (active) | IC50 (Nonstructural protein 1): 1.18 µM (active)

CCN1CCN(c2cc(C)c3cc(NC(=O)c4ccc(C)c(C)c4)ccc3n2)CC1
EC50 (Kallikrein-7): 17.2 µM (inactive)

Fc1ccc(NC(S)=Nc2ccc3nccnc3c2)cc1
IC50 (H9c2): 22.5 µM (active) | IC50 [13]: > 50 µM (not active)

COC(=O)c1cccc(NC(=O)CN2CCC(NC(=O)c3cc(OC)c(OC)c(OC)c3)CC2)c1
IC50 [1]: 1.7 µM (active)

CCOc1ccc(N(C)S(=O)(=O)c2cc(-c3cc(C)no3)ccc2C(C)C)cc1
AC50 [14]: 58.4 µM (active) | AC50 [15]: 1.27 µM (active) | AC50 [16]: 1.32 µM (active) | AC50 [17]: 7.87 µM (active) | AC50 [9]: 5.22 µM (active) | AC50 [10]: 4.13 µM (active) | AC50 [18]: 16.7 µM (active) | AC50 [19]: 3 µM (active)

Cc1ccc2nc(N)[nH]c(=O)c2c1Sc1ccncc1
IC50 [20]: > 20 µM (inactive) | IC50 [21]: > 10 µM (inactive) | IC50 [22]: 0.343 µM (active) | IC50 [23]: 3.5 µM (active) | IC50 [24]: 0.83 µM (active) | IC50 [25]: > 10 µM (inactive) | IC50 [26]: 2.24 µM (active) | IC50 [27]: > 20 µM (inactive) | IC50 [28]: 4.75 µM (active) | IC50 [29]: > 20 µM (inactive)

COc1c(C)c2c(c(O)c1C/C=C(\C)CCC(=O)OCCN1CCOCC1)C(=O)OC2 [MYCOPHENOLATE MOFETIL]
IC50 [20]: 0.001 µM (active) | IC50 [21]: > 10 µM (inactive) | IC50 [22]: 0.165 µM (active) | IC50 [23]: 0.0672 µM (active) | IC50 [24]: 0.0498 µM (active) | IC50 [25]: > 10 µM (inactive) | IC50 [26]: 2.6 µM (active) | IC50 [27]: > 20 µM (inactive) | IC50 [28]: > 20 µM (inactive) | IC50 [29]: > 20 µM (inactive)
